From patent US20220381787A1, “NOVEL LOX-1 ANTIBODY COMPOSITIONS, LOX1 NEUTRALIZATION ASSAY AND METHODS OF TREATMENT USING SAME” (The Wistar Institute of Anatomy and Biology, priority 2019, published 2022)

System: PMN isolated from a healthy donor
Test: FACS of untreated or Thapsigargin-treated PMN for LOX-1 expression
Type: cell-based, human
Settings: 1 μM Thapsigargin (THG)
Procedure: FIGS. 10A and 10B show FACS analyses of PMN cells showing the expression of LOX-1. Representative histograms of untreated or Thapsigargin (THG)-treated cells were stained after incubating with anti-LOX-1 antibody (Ab) are shown. Percentage of LOX-1^+ PMN and expression of LOX-1 in PMN isolated from a healthy donor and treated with 1 μM […] and 1 mM Dithiothreitol (DTT). Representative LOX-1 expression level with anti-LOX-1 and commercial Abs. Representative LOX-1 expression level with DMAb derived Abs. Summary of data derived from FACS analysis of LOX-1 level is expressed as the % of LOX-1^+/CD15^+.

SMILES: C/C=C(/C)C(=O)O[C@H]1C(C)=C2[C@H]([C@@H]1OC(=O)CCCCCCC)[C@@](C)(OC(C)=O)C[C@H](OC(=O)CCC)[C@@]1(O)[C@H]2OC(=O)[C@@]1(C)O [THG, Thapsigargin]
- percentage of LOX-1+ PMN (% of LOX-1+/CD15+): Higher percentages of PMN expressed LOX-1
